Consider one molecule from ChEMBL document CHEMBL1122692, “Catechol derivatives of 6-aminobenzocycloheptene: assessment of dopaminergic effects” (1984).

What all share (assay type): functional
Assay [1] deals with Felis catus. Nature of the assay: Compound was evaluated for the biological activity (pressure) in anesthetized cats at a dose of 10 ug/kg.
In assay [2] the test system is Felis catus. Nature of the assay: Compound was evaluated for the biological activity (pressure) in anesthetized cats at a dose of 40 ug/kg.
Assay [3] relates to Felis catus. The assay can be described thus: Compound was evaluated for the biological activity (pressure) in anesthetized cats at a dose of 20 ug/kg.

With `NC1CCCc2c(ccc(O)c2O)C1` (stereo not drawn), the Pressure with Felis catus [1] worked out at 15 mmHg; with Felis catus [2], 70 mmHg; in the assay on Felis catus [3], 38 mmHg.
